Test results from BindingDB's records for doi:10.1016/j.ejmech.2021.113381 (University of Texas Medical Branch, 2021).
pIC50: −log10 of the molar value. Structures can show the parent of a compound that is named as a salt.

Test: Inhibition of ASM (unknown origin)-mediated KRAS mislocalization from plasma membrane

CC(NCCC(c1ccccc1)c1ccccc1)c1ccccc1 (stereo unspecified) [FENDILINE HYDROCHLORIDE]
pIC50: 5.25
